# Earlier results, collected in paper PMC12371493 (ACS Bio & Med Chem Au, 2025).
# System: MC38-hPD-L1 tumor
# Details: dosed SubQ; ref not given
compound,measurement,value
CO[C@H]1[C@H]2OP(=O)(O)OC[C@@]34C[C@@H]3[C@@H](n3cnc5c(N)ncnc53)[C@H](O)[C@@H]4O[P@](=O)(S)OC[C@H]1O[C@H]2n1cnc2c(=O)[nH]c(N)nc21 [ALG-031048],reduction of MC38-hPD-L1 tumor,"could reduce MC38-hPD-L1tumor, albeit modestly"
